According to ChEMBL document CHEMBL1131216, “Anhydrolide macrolides. 2. Synthesis and antibacterial activity of 2,3-anhydro-6-O-methyl 11,12-carbazate erythromycin A analogues” (1998):
Values after ≈ are worked out from the molar mass of the structure shown.

Columns and labels:
Assay type in all cases: functional
[1] = tested on: Haemophilus influenzae; assay: In vitro antibacterial activity of DILL strain of Gram negative bacteria Haemophilus influenzae
[2] = tested on: Streptococcus pneumoniae; assay: In vitro antibacterial activity of 5649 strain of Gram positive bacteria Streptococcus pneumoniae
[3] = tested on: Streptococcus pneumoniae; assay: In vitro antibacterial activity of 5979 strain of Gram positive bacteria Streptococcus pneumoniae
[4] = tested on: Streptococcus pneumoniae; assay: In vitro antibacterial activity of ATCC 6303 strain of Gram positive bacteria Streptococcus pneumoniae
[5] = tested on: Staphylococcus aureus; assay: In vivo antibacterial activity of NCTC-10649 strain of Gram positive bacteria Staphylococcus aureus
[6] = tested on: Streptococcus pneumoniae; assay: In vivo antibacterial activity of ATCC 6303 strain of Gram positive bacteria Streptococcus pneumoniae (95% confidence interval)
[7] = tested on: Staphylococcus aureus; assay: In vitro antibacterial activity of A5177 strain of Gram positive bacteria Staphylococcus aureus
[8] = tested on: Staphylococcus aureus; assay: In vivo antibacterial activity of NCTC-10649 strain of Gram positive bacteria Staphylococcus aureus (95% confidence interval)
[9] = tested on: Streptococcus pneumoniae; assay: In vivo antibacterial activity of ATCC 6303 strain of Gram positive bacteria Streptococcus pneumoniae
[10] = tested on: Streptococcus pyogenes; assay: In vitro antibacterial activity of 930 strain of Gram positive bacteria Streptococcus pyogenes
[11] = tested on: Streptococcus pyogenes; assay: In vitro antibacterial activity of EES61 strain of Gram positive bacteria Streptococcus pyogenes
[12] = tested on: Streptococcus pyogenes; assay: In vitro antibacterial activity of PIU2584 strain of Gram positive bacteria Streptococcus pyogenes
[13] = tested on: Staphylococcus aureus; assay: In vitro antibacterial activity of A-5278 strain of Gram positive bacteria Staphylococcus aureus
[14] = tested on: Staphylococcus aureus; assay: In vitro antibacterial activity of 6538P strain of Gram positive bacteria Staphylococcus aureus

Compound	MIC [1]	MIC [2]	MIC [3]	MIC [4]	MIC [5]	MIC [7]	MIC [9]	MIC [10]	MIC [11]	MIC [12]	MIC [13]	MIC [14]	ED50 [6]	ED50 [8]
CC[C@H]1OC(=O)[C@H](C)[C@@H](O[C@H]2C[C@@](C)(OC)[C@@H](O)[C@H](C)O2)[C@H](C)[C@@H](O[C@@H]2O[C@H](C)C[C@H](N(C)C)[C@H]2O)[C@](C)(OC)C[C@@H](C)C(=O)[C@H](C)[C@@H](O)[C@]1(C)O [CLARITHROMYCIN]					0.39 µg/mL (≈ 0.521 µM)		0.03 µg/mL (≈ 0.0401 µM)						27.2 mg/kg/day	22.4 mg/kg/day
CC[C@H]1OC(=O)/C(C)=C/[C@H](C)[C@@H](O[C@@H]2O[C@H](C)C[C@H](N(C)C)[C@H]2O)[C@@](C)(OC)C[C@@H](C)C(=O)[C@H](C)[C@H]2N(NC/C=C/c3ccc([N+](=O)[O-])cc3)C(=O)O[C@]12C	8 µg/mL (≈ 10.4 µM)	1 µg/mL (≈ 1.29 µM)	64 µg/mL (≈ 82.8 µM)	0.03 µg/mL (≈ 0.0388 µM)	0.2 µg/mL (≈ 0.259 µM)	0.2 µg/mL (≈ 0.259 µM)	0.004 µg/mL (≈ 0.00518 µM)	32 µg/mL (≈ 41.4 µM)	0.06 µg/mL (≈ 0.0776 µM)	1 µg/mL (≈ 1.29 µM)	100 µg/mL (≈ 129 µM)	0.2 µg/mL (≈ 0.259 µM)	16.8 mg/kg/day	50.1 mg/kg/day
CC[C@H]1OC(=O)/C(C)=C/[C@H](C)[C@@H](O[C@@H]2O[C@H](C)C[C@H](N(C)C)[C@H]2O)[C@@](C)(OC)C[C@@H](C)C(=O)[C@H](C)[C@H]2N(NCc3ccc(N(C)C)cc3)C(=O)O[C@]12C	16 µg/mL (≈ 21.5 µM)	1 µg/mL (≈ 1.34 µM)	> 128 µg/mL	0.125 µg/mL (≈ 0.168 µM)		0.2 µg/mL (≈ 0.268 µM)		128 µg/mL (≈ 172 µM)	0.125 µg/mL (≈ 0.168 µM)	1 µg/mL (≈ 1.34 µM)	> 100 µg/mL	0.2 µg/mL (≈ 0.268 µM)		
CC[C@H]1OC(=O)/C(C)=C/[C@H](C)[C@@H](O[C@@H]2O[C@H](C)C[C@H](N(C)C)[C@H]2O)[C@@](C)(OC)C[C@@H](C)C(=O)[C@@H](C)[C@H]2N(NC/C=C/c3ccccc3)C(=O)O[C@]12C	> 64 µg/mL	4 µg/mL (≈ 5.49 µM)	16 µg/mL (≈ 22 µM)	1 µg/mL (≈ 1.37 µM)		6.2 µg/mL (≈ 8.52 µM)		16 µg/mL (≈ 22 µM)	4 µg/mL (≈ 5.49 µM)	8 µg/mL (≈ 11 µM)	50 µg/mL (≈ 68.7 µM)	12.5 µg/mL (≈ 17.2 µM)		
CC[C@H]1OC(=O)/C(C)=C/[C@H](C)[C@@H](O[C@@H]2O[C@H](C)C[C@H](N(C)C)[C@H]2O)[C@@](C)(OC)C[C@@H](C)C(=O)[C@H](C)[C@H]2N(NCc3ccc(NC(C)=O)cc3)C(=O)O[C@]12C	4 µg/mL (≈ 5.27 µM)	1 µg/mL (≈ 1.32 µM)	> 64 µg/mL	0.125 µg/mL (≈ 0.165 µM)		0.78 µg/mL (≈ 1.03 µM)		> 64 µg/mL	0.03 µg/mL (≈ 0.0395 µM)	2 µg/mL (≈ 2.64 µM)	> 100 µg/mL	0.78 µg/mL (≈ 1.03 µM)		
CC[C@H]1OC(=O)/C(C)=C/[C@H](C)[C@@H](O[C@@H]2O[C@H](C)C[C@H](N(C)C)[C@H]2O)[C@@](C)(OC)C[C@@H](C)C(=O)[C@H](C)[C@H]2N(NCc3ccccn3)C(=O)O[C@]12C	8 µg/mL (≈ 11.4 µM)	1 µg/mL (≈ 1.42 µM)	> 128 µg/mL	0.06 µg/mL (≈ 0.0854 µM)		0.39 µg/mL (≈ 0.555 µM)		> 128 µg/mL	0.06 µg/mL (≈ 0.0854 µM)	1 µg/mL (≈ 1.42 µM)	> 100 µg/mL	0.39 µg/mL (≈ 0.555 µM)		

Further lines, with some results ahead:

MIC [1]	MIC [2]	MIC [3]	MIC [4]	MIC [5]	MIC [7]	MIC [9]	MIC [10]	MIC [11]	MIC [12]	MIC [13]	MIC [14]	Compound	ED50 [6]	ED50 [8]
2 µg/mL (≈ 2.69 µM)	1 µg/mL (≈ 1.35 µM)	> 128 µg/mL	0.03 µg/mL (≈ 0.0404 µM)	0.2 µg/mL (≈ 0.269 µM)	0.2 µg/mL (≈ 0.269 µM)	0.03 µg/mL (≈ 0.0404 µM)	> 128 µg/mL	0.03 µg/mL (≈ 0.0404 µM)	1 µg/mL (≈ 1.35 µM)	> 100 µg/mL	0.2 µg/mL (≈ 0.269 µM)	CC[C@H]1OC(=O)/C(C)=C/[C@H](C)[C@@H](O[C@@H]2O[C@H](C)C[C@H](N(C)C)[C@H]2O)[C@@](C)(OC)C[C@@H](C)C(=O)[C@H](C)[C@H]2N(NC/C=C/c3ccc(N)cc3)C(=O)O[C@]12C	9.9 mg/kg/day	39.9 mg/kg/day
4 µg/mL (≈ 5.5 µM)	0.5 µg/mL (≈ 0.688 µM)	> 128 µg/mL	0.03 µg/mL (≈ 0.0413 µM)		0.02 µg/mL (≈ 0.0275 µM)		128 µg/mL (≈ 176 µM)	0.015 µg/mL (≈ 0.0206 µM)	0.5 µg/mL (≈ 0.688 µM)	> 100 µg/mL	0.05 µg/mL (≈ 0.0688 µM)	CC[C@H]1OC(=O)/C(C)=C/[C@H](C)[C@@H](O[C@@H]2O[C@H](C)C[C@H](N(C)C)[C@H]2O)[C@@](C)(OC)C[C@@H](C)C(=O)[C@H](C)[C@H]2N(NCc3ccc(C#N)cc3)C(=O)O[C@]12C		
4 µg/mL (≈ 5.36 µM)	0.5 µg/mL (≈ 0.67 µM)	> 128 µg/mL	0.03 µg/mL (≈ 0.0402 µM)		0.1 µg/mL (≈ 0.134 µM)		128 µg/mL (≈ 172 µM)	0.06 µg/mL (≈ 0.0804 µM)	1 µg/mL (≈ 1.34 µM)	> 100 µg/mL	0.1 µg/mL (≈ 0.134 µM)	CC[C@H]1OC(=O)/C(C)=C/[C@H](C)[C@@H](O[C@@H]2O[C@H](C)C[C@H](N(C)C)[C@H]2O)[C@@](C)(OC)C[C@@H](C)C(=O)[C@H](C)[C@H]2N(NCCCc3cccc(O)c3)C(=O)O[C@]12C		
4 µg/mL (≈ 5.36 µM)	1 µg/mL (≈ 1.34 µM)	> 64 µg/mL	0.004 µg/mL (≈ 0.00536 µM)		0.1 µg/mL (≈ 0.134 µM)		> 64 µg/mL	0.004 µg/mL (≈ 0.00536 µM)	0.25 µg/mL (≈ 0.335 µM)	> 100 µg/mL	0.2 µg/mL (≈ 0.268 µM)	CC[C@H]1OC(=O)/C(C)=C/[C@H](C)[C@@H](O[C@@H]2O[C@H](C)C[C@H](N(C)C)[C@H]2O)[C@@](C)(OC)C[C@@H](C)C(=O)[C@H](C)[C@H]2N(NCCCc3ccc(O)cc3)C(=O)O[C@]12C		
16 µg/mL (≈ 21.1 µM)	2 µg/mL (≈ 2.63 µM)	> 64 µg/mL	0.06 µg/mL (≈ 0.0789 µM)		0.39 µg/mL (≈ 0.513 µM)		64 µg/mL (≈ 84.2 µM)	0.03 µg/mL (≈ 0.0395 µM)	1 µg/mL (≈ 1.32 µM)	> 100 µg/mL	0.39 µg/mL (≈ 0.513 µM)	CC[C@H]1OC(=O)/C(C)=C/[C@H](C)[C@@H](O[C@@H]2O[C@H](C)C[C@H](N(C)C)[C@H]2O)[C@@](C)(OC)C[C@@H](C)C(=O)[C@H](C)[C@H]2N(NCCCc3ccc(OC)cc3)C(=O)O[C@]12C		
4 µg/mL (≈ 5.57 µM)	1 µg/mL (≈ 1.39 µM)	> 128 µg/mL	0.03 µg/mL (≈ 0.0418 µM)		0.2 µg/mL (≈ 0.279 µM)		> 128 µg/mL	0.03 µg/mL (≈ 0.0418 µM)	1 µg/mL (≈ 1.39 µM)	> 100 µg/mL	0.2 µg/mL (≈ 0.279 µM)	CC[C@H]1OC(=O)/C(C)=C/[C@H](C)[C@@H](O[C@@H]2O[C@H](C)C[C@H](N(C)C)[C@H]2O)[C@@](C)(OC)C[C@@H](C)C(=O)[C@H](C)[C@H]2N(NCc3ccc(O)cc3)C(=O)O[C@]12C		
